Results published in patent US11065266B2, “Method of treating melanoma using an inhibitor of an atypical protein kinase C” (UNIVERSITY OF SOUTH FLORIDA, priority 2016, dated 2021).

How the values were obtained:
SK-MEL-2 cells = assay: Western blot of protein levels; format: cell-based, human; design: reduction of PKC-ι level / reduction of pPKC-ι level / reduction of PKC-ζ level / reduction of pPKC-ζ level: concentration or dose not given beside the values; conditions: for reduction of PKC-ζ level / reduction of PKC-ι level / reduction of pPKC-ζ level / reduction of pPKC-ι level: vs respective control
Protocol: Approximately 2×10^5 cells from PCS-200-013 and SK-MEL-2 cell lines were plated in T25 flasks until they become 70% confluent. Confluent cells were semi-synchronized by contact inhibition and serum starvation for 48 hrs. Subsequently, cells were incubated with serum and atypical inhibitors. The cells were removed at specific times and were placed in ice to terminate the incubation. Cells were washed at least two times with ice cold DPBS. Cells were then scrapped, re-suspended and sonicated in 500 μL of homogenization buffer (50 mM HEPES—pH 7.5), 150 mM NaCl, 0.1% Triton X, 1 mM EDTA (ethylenediaminetetraacetic acid), 2 mM EGTA [glycol-bis (2-aminoethylether)-N, N, N′,N′-tetraacetic acid], 0.1 mM orthovanadate, 1 mM NaF, 2 mM PMSF (phenylmethylsulphonylfluoride), 1 mM DTT (dithiothreitol) and 0.15 U/mL aprotinin. Cell suspensions was then sonicated and centrifuged at 100,000 g for 30 minutes. The protein concentrations was determined using Bradford method. Subsequently, approximately 800 μg of proteins were immunoprecipitated with the antibody against desired protein. In some cases cell lysates were suspended with anti-HFS-1 antibody, rocking overnight at 4° C. Agarose beds were added after 24 hrs. Then the complex of cell lysate-anti HSF-1 antibody-agarose beads was rocked at 4° C. for 2 hrs. After washing the beads, approximately […] the sample loading buffer was added to dissolve all the protein on the beads. Proteins were then separated on sodium dodecyl sulfate polyacrylamide gel electrophoresis (SDS-PAGE) and transblotted followed by immunoblotting with anti-PKC-ζ or anti-PKC-ι or anti-HSF-1 antibody or phosphospecific antibodies. Immunoreactive bands were visualized with enhanced chemiluminescence. […]
Western blots (WB) were performed to investigate the effect of ACPD and DNDA on the expression of aPKCs on malignant melanoma. […] DNDA decreased the levels of PKC-ι by 52%, pPKC-ι by 33% in SK-MEL-2 cells and by 27% of PKC-ι and pPKC-ι by 20% in MeWo cells.
DNDA reduced the levels of PKC-ζ by 33%, pPKC-ζ by only 17% in SK-MEL-2 cells and by 60% of PKC-ζ and pPKC-ζ by 29% in MeWo cells. All values (percent) were calculated compared to their respective control in Western blot. B-actin was used as the internal control to ensure that equal amounts of proteins were loaded in each lane in SDS-PAGE.

PKC-ι = target: T1, PKC-ι (Homo sapiens, UniProt P41743); design: dose or concentration left out as unconfirmed; conditions: cited from earlier work
T1 sequence (P41743 1-596): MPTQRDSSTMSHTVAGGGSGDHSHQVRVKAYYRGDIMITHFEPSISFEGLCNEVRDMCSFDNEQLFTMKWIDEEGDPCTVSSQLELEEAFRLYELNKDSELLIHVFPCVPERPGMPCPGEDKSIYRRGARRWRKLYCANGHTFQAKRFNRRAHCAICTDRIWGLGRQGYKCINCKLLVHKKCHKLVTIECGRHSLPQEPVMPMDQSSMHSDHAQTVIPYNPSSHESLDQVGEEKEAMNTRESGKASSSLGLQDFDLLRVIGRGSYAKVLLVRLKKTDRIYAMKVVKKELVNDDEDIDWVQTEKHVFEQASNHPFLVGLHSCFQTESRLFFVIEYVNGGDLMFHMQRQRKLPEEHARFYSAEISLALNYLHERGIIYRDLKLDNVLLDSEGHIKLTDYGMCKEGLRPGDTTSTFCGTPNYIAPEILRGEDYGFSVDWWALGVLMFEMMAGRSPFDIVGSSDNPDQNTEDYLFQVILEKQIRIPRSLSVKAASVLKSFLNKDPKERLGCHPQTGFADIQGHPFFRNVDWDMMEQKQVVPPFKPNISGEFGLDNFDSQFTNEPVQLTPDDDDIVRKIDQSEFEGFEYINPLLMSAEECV

PKC-ζ = target: T2, PKC-ζ (Homo sapiens, UniProt Q05513); conditions: at 10 μM; cited from earlier work
T2 sequence (Q05513 1-592): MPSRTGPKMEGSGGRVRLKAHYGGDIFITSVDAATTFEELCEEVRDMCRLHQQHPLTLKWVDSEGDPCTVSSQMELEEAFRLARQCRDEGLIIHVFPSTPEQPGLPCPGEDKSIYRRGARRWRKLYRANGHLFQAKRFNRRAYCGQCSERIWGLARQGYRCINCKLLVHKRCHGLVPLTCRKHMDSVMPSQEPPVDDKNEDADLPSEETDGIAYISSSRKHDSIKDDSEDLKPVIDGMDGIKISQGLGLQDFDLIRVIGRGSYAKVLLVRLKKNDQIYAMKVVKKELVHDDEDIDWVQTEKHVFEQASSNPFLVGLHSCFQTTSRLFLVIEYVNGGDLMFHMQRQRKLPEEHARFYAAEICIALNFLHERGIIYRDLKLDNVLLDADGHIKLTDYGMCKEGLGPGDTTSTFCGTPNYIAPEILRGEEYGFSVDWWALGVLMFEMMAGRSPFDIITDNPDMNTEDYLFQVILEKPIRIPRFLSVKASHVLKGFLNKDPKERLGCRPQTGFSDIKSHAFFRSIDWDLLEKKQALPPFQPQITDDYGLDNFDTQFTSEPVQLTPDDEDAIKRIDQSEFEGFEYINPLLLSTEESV

[1] = tested on: MAPK, Akt2, FGFR 1/2/3/4, mTOR, GSK3B, IRAK1/4, JAK 1/2, MEK1, ERK1/2, JNK 1/2, PKA, Src, ROCK2 and PI3K; conditions: cited from earlier work
[2] = tested on: malignant melanoma cell lines (SK-MEL-2 and MeWo); assay: Western blot of ζ-Stat treated samples; format: cell-based, human
Protocol: The change of levels of phosphorylated PKC-ι, total PKC-ι (FIG. 18A) and change of levels of phosphorylated PKC-ζ, total PKC-ζ (FIG. 18B) are shown for the ζ-Stat treated (2.5 μM) samples of malignant melanoma cell lines (SK-MEL-2 and MeWo) after the end of 3rd day of treatments. β-actin was used as the internal loading control in each Western blot. Whole cell lysate of 40 μg was separated on 7.5% SDS-PAGE and the Western blots of above proteins were obtained. N=3 experiments were performed in each case.

[3] = upon increasing concentration, vs control

SMILES | decrease of Bcl-2 levels (SK-MEL-2 cells) [%] | decrease of CD44 (SK-MEL-2 cells) [%] | decrease of Vimentin levels (SK-MEL-2 cells) [%] | decrease of β-catenin (SK-MEL-2 cells) [%] | increase of Caspase-3 levels (SK-MEL-2 cells) [%] | increase of E-cadherin levels (SK-MEL-2 cells) [%] | increase of NF-KB p65 levels (SK-MEL-2 cells) [%] | increase of cleaved PARP levels (SK-MEL-2 cells) [%] | reduction of PKC-ζ level (SK-MEL-2 cells) [%] | reduction of PKC-ι level (SK-MEL-2 cells) [%] | reduction of pPKC-ζ level (SK-MEL-2 cells) [%] | reduction of pPKC-ι level (SK-MEL-2 cells) [%] | other results
CC(=O)C1=C(O)CCC1=O [ACPD, 2-acetyl-1,3-cyclopentanedione] | 13 | 19 | 51 | 39 | 26 | 18 | 31 | 14 | 42 | 43 | 29 | 31 | decrease of PARP levels (SK-MEL-2 cells): 33%; PKC-ζ level (SK-MEL-2 cells; [3]): decreased; PKC-ι level (SK-MEL-2 cells; [3]): good decrease; inhibition of PKC-ι (PKC-ι): approximately 40%; inhibition of PKC-ζ (PKC-ζ): about 60%; inhibition of other kinases [1]: does not inhibit
O=S(=O)(O)c1cc(O)c2c(S(=O)(=O)O)cc(S(=O)(=O)O)cc2c1 [ζ-Stat, 8-hydroxy-1,3,6-naphthalenetrisulfonic acid] | – | – | – | – | – | – | – | – | – | – | – | – | apoptosis of malignant melanoma cells [2]: induces the apoptosis; phosphorylated PKC-ι level ([2]; 2.5 μM, end of 3rd day): did not change significantly; reduction of pPKC-ζ level ([2]; 2.5 μM, end of 3rd day): 37%; reduction of total PKC-ζ level ([2]; 2.5 μM, end of 3rd day): 42%; total PKC-ι protein level ([2]; 2.5 μM, end of 3rd day): did not change significantly
Nc1c(S(=O)(=O)O)cc2cc(S(=O)(=O)O)ccc2c1N [DNDA, 3,4-diamino-2,7-naphthalenedisulfonic acid] | 7 | 27 | 49 | 13 | 32 | 28 | 49 | 16 | 33 | 52 | 17 | 33 | increase of PARP levels (SK-MEL-2 cells): 12%
